Assay results reported in US20250230147A1, “LACTAMS AS CBL-B INHIBITORS” (Genentech, Inc., priority 2021, published 2025).
Structures can show the parent of a compound that is named as a salt.

Key:
c-Cbl = c-Cbl (Homo sapiens (Human), UniProt P22681); experiment: C-Cbl LCK Ub TR-FRET assay (c-cbl Lck HTRF); type: biochemical; details: for (fold-selectivity): C-cbl Lck HTRF IC50 relative to Cbl-b Lck HTRF IC50
Method in brief: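 Detection reagents added, brief spin, 20 min RT. IC50 fit normalized to no-LCK (low) and DMSO (high) controls.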

Cbl-b = Cbl-b (Homo sapiens (Human), UniProt Q13191); experiment: Cbl-b LCK Ub TR-FRET assay (Cbl-b Lck HTRF); type: biochemical
Method in brief: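 Biotin-Cbl-b preincubated with compound (10-point 3-fold series) 60 min, then His-LCK with 1 mM ATP (2× mixture) added for 90 min at room temperature. Ubiquitination detected by TR-FRET using HA-ubiquitin/UBE2D2 adduct, anti-HA-D2 and streptavidin-Eu; IC50 normalised to no-LCK and DMSO controls.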

Chain of c-Cbl (P22681 47-435): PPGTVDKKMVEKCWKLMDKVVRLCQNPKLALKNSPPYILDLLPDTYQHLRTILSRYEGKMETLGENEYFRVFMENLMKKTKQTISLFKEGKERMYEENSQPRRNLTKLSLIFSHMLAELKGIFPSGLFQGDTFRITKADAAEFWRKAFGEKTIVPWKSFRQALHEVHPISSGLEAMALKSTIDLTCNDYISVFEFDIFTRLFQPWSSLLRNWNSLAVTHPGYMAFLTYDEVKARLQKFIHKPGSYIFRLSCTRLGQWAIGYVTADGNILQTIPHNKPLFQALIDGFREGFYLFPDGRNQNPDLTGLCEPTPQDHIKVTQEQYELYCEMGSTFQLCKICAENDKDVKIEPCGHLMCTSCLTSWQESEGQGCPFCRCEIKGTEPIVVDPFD
Chain of Cbl-b (Q13191 40-426): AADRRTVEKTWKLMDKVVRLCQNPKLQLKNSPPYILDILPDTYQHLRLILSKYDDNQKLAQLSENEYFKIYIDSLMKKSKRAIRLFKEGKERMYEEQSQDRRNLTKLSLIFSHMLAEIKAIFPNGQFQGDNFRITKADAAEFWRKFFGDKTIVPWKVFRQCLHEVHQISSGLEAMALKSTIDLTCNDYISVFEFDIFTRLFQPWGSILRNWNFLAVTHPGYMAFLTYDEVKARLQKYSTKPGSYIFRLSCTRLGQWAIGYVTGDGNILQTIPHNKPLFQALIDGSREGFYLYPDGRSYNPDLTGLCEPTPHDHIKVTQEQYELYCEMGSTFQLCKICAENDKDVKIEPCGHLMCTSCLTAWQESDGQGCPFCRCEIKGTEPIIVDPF

SMILES | IC50 (c-Cbl) | (fold-selectivity) (c-Cbl) | IC50 (Cbl-b)
COC[C@@H]1CCCN1Cc1cc2c(c(C(F)(F)F)c1)CN(c1cccc(C3([C@H](F)c4nncn4C)COC3)c1)C2=O [Compound 160, 2-(3-(3-((S)-fluoro(4-methyl-4H-1,2,4-triazol-3-yl)methyl)oxetan-3-yl)phenyl)-6-(((S)-2-(methoxymethyl)pyrrolidin-1-yl)methyl)-4-(trifluoromethyl)isoindolin-1-one] | 2300 nM | 1.7x | 1400 nM
CN(CCC(C)(C)O)Cc1cc2c(c(C(F)(F)F)c1)CN(c1cccc(C3([C@@H](F)c4nncn4C)COC3)c1)C2=O [Compound 157, (R)-2-(3-(3-(fluoro(4-methyl-4H-1,2,4-triazol-3-yl)methyl)oxetan-3-yl)phenyl)-6-(((3-hydroxy-3-methylbutyl)(methyl)amino)methyl)-4-(trifluoromethyl)isoindolin-1-one] | 110 nM | 1.6x | 72 nM
COCC1CCN(Cc2cc3c(c(C(F)(F)F)c2)CN(c2cccc(C4([C@@H](F)c5nncn5C)COC4)c2)C3=O)CC1 [Compound 145, (R)-2-(3-(3-(fluoro(4-methyl-4H-1,2,4-triazol-3-yl)methyl)oxetan-3-yl)phenyl)-6-((4-(methoxymethyl)piperidin-1-yl)methyl)-4-(trifluoromethyl)isoindolin-1-one] | 180 nM | 1.4x | 130 nM
CN(CCC(C)(C)O)Cc1cc2c(c(C(F)(F)F)c1)CN(c1cccc(C3([C@H](F)c4nncn4C)COC3)c1)C2=O [Compound 158, (S)-2-(3-(3-(fluoro(4-methyl-4H-1,2,4-triazol-3-yl)methyl)oxetan-3-yl)phenyl)-6-(((3-hydroxy-3-methylbutyl)(methyl)amino)methyl)-4-(trifluoromethyl)isoindolin-1-one] | 280 nM | 1.0x | 270 nM
Cn1cnnc1CC1(c2cccc(N3Cc4c(Cl)cc(CNC5(C)CCC5)cc4C3=O)c2)CC(F)(F)C1 [Compound 252, 4-chloro-2-(3-(3,3-difluoro-1-((4-methyl-4H-1,2,4-triazol-3-yl)-methyl)cyclobutyl)phenyl)-6-(((1-methylcyclobutyl)amino)methyl)isoindolin-1-one formate] | 11 nM |  | 13 nM
CN(C)C(=O)CNc1cc(C2(Cc3nncn3C)CCC2)cc(N2Cc3c(cc(CNC4(C)CCC4)cc3C(F)(F)F)C2=O)n1 [Compound 311, N,N-dimethyl-2-((4-(1-((4-methyl-4H-1,2,4-triazol-3-yl)methyl)cyclobutyl)-6-(6-(((1-methylcyclobutyl)amino)methyl)-1-oxo-4-(trifluoromethyl)isoindolin-2-yl)pyridin-2-yl)amino)acetamide formate] | 140 nM |  | 110 nM
Cn1cnnc1C[C@]1(c2cccc(N3Cc4c(cccc4C(F)(F)F)C3=O)c2)C[C@@H](F)C1 [Compound 99, 2-(3-((1s,3r)-3-fluoro-1-((4-methyl-4H-1,2,4-triazol-3-yl)methyl)cyclobutyl)phenyl)-4-(trifluoromethyl)isoindolin-1-one] | 340 nM | 2.0x | 170 nM
CC(C)[C@H]1CNCCN1Cc1cc2c(c(C(F)(F)F)c1)CN(c1cccc(C3([C@H](F)c4nncn4C)CCC3)c1)C2=O [Compound 217, 2-(3-(1-((S)-fluoro(4-methyl-4H-1,2,4-triazol-3-yl)methyl)cyclobutyl)phenyl)-6-(((S)-2-isopropylpiperazin-1-yl)methyl)-4-(trifluoromethyl)isoindolin-1-one] | 20 nM | 1.2x | 17 nM
Cn1cnnc1[C@H](F)C1(c2cccc(N3Cc4c(cc(CN5CC(C)(O)C5)cc4C(F)(F)F)C3=O)c2)COC1 [Compound 161, (R)-2-(3-(3-(fluoro(4-methyl-4H-1,2,4-triazol-3-yl)methyl)oxetan-3-yl)phenyl)-6-((3-hydroxy-3-methylazetidin-1-yl)methyl)-4-(trifluoromethyl)isoindolin-1-one] | 110 nM | 1.7x | 62 nM
CC(C)[C@@H]1CNCCN1Cc1cc2c(c(C(F)(F)F)c1)CN(c1cccc(C3([C@@H](F)c4nncn4C)COC3)c1)C2=O [Compound 94, 2-(3-(3((R)-fluoro(4-methyl-4H-1,2,4-triazol-3-yl)methyl)oxetan-3-yl)phenyl)-6-(((R)-2-isopropylpiperazin-1-yl)methyl)-4-(trifluoromethyl)isoindolin-1-one] | 200 nM | 1.1x | 180 nM
Cn1cnnc1[C@@H](F)C1(c2cccc(N3Cc4c(cc(CN5CC(CCO)C5)cc4C(F)(F)F)C3=O)c2)COC1 [Compound 178, (S)-2-(3-(3-(fluoro(4-methyl-4H-1,2,4-triazol-3-yl)methyl)oxetan-3-yl)phenyl)-6-((3-(2-hydroxyethyl)azetidin-1-yl)methyl)-4-(trifluoromethyl)isoindolin-1-one] | 350 nM | 2.0x | 170 nM
Cn1cnnc1CC1(c2cccc(N3Cc4c(cc(CN)cc4C(F)(F)F)C3=O)c2)COC1 [Compound 66, 6-(aminomethyl)-2-(3-(3-((4-methyl-4H-1,2,4-triazol-3-yl)methyl)oxetan-3-yl)phenyl)-4-(trifluoromethyl)isoindolin-1-one formate] | 100 nM |  | 76 nM
Cn1cnnc1[C@@H](F)C1(c2cccc(N3Cc4c(cc(CN5CC(C(F)F)C5)cc4C(F)(F)F)C3=O)c2)COC1 [Compound 138, (S)-6-((3-(difluoromethyl)azetidin-1-yl)methyl)-2-(3-(3-(fluoro(4-methyl-4H-1,2,4-triazol-3-yl)methyl)oxetan-3-yl)phenyl)-4-(trifluoromethyl)isoindolin-1-one] | 180 nM | 1.8x | 98 nM

More lines, now with the values ahead:

IC50 (c-Cbl) | (fold-selectivity) (c-Cbl) | IC50 (Cbl-b) | SMILES
110 nM | (0.79x) | 140 nM | Cn1cnnc1CC1(c2cccc(N3Cc4c(cc(CN5CCC[C@](C)(O)C5)cc4C(F)(F)F)C3=O)c2)CC(F)(F)C1 [Compound 440, (S)-2-(3-(3,3-difluoro-1-((4-methyl-4H-1,2,4-triazol-3-yl)methyl)cyclobutyl)phenyl)-6-((3-hydroxy-3-methylpiperidin-1-yl)methyl)-4-(trifluoromethyl)isoindolin-1-one]
13 nM | (0.83x) | 15 nM | Cn1cnnc1CC1(c2cc(C3CC3)cc(N3Cc4c(cc(CNC5(C)CCC5)cc4C(F)(F)F)C3=O)c2)COC1 [Compound 472, 2-(3-cyclopropyl-5-(3-((4-methyl-4H-1,2,4-triazol-3-yl)methyl)oxetan-3-yl)phenyl)-6-(((1-methylcyclobutyl)amino)methyl)-4-(trifluoromethyl)isoindolin-1-one]
14 nM | (0.72x) | 20 nM | Cn1cnnc1CC1(c2cccc(N3Cc4c(cc(CNCC5COC5)cc4C(F)(F)F)C3=O)c2)CC(F)(F)C1 [Compound 368, 2-(3-(3,3-difluoro-1-((4-methyl-4H-1,2,4-triazol-3-yl)methyl)cyclobutyl)phenyl)-6-(((oxetan-3-ylmethyl)amino)methyl)-4-(trifluoromethyl)isoindolin-1-one]
1300 nM | (1.4x) | 880 nM | Cn1cnnc1CC1(c2cc(C3CCC3)nc(N3Cc4c(cccc4C(F)(F)F)C3=O)c2)COC1 [Compound 265, 2-(6-cyclobutyl-4-(3-((4-methyl-4H-1,2,4-triazol-3-yl)methyl)oxetan-3-yl)pyridin-2-yl)-4-(trifluoromethyl)isoindolin-1-one]
11 nM | (1.0x) | 11 nM | Cn1cnnc1CC1(c2cc(NCC3CC3)nc(N3Cc4c(cc(CNC5(C)CCC5)cc4C(F)(F)F)C3=O)c2)CCC1 [Compound 238, 2-(6-((cyclopropylmethyl)amino)-4-(1-((4-methyl-4H-1,2,4-triazol-3-yl)methyl)cyclobutyl)pyridin-2-yl)-6-(((1-methylcyclobutyl)amino)methyl)-4-(trifluoromethyl)-isoindolin-1-one]
68 nM | (0.77x) | 88 nM | CN1C[C@@H]2C[C@H]1CN2Cc1cc2c(c(C(F)(F)F)c1)CN(c1cccc(C3(Cc4nncn4C)CC(F)(F)C3)c1)C2=O [Compound 414, 2-(3-(3,3-difluoro-1-((4-methyl-4H-1,2,4-triazol-3-yl)methyl)cyclobutyl)phenyl)-6-(((1S,4S)-5-methyl-2,5-diazabicyclo[2.2.1]heptan-2-yl)methyl)-4-(trifluoromethyl)isoindolin-1-one]
77 nM | (0.62x) | 12 nM | CC(C)[C@H]1CN(C)CCN1Cc1cc2c(c(C(F)(F)F)c1)CN(c1cccc(C3(Cc4nncn4C)CCC3)c1)C2=O [Compound 410, (S)-6-((2-isopropyl-4-methylpiperazin-1-yl)methyl)-2-(3-(1-((4-methyl-4H-1,2,4-triazol-3-yl)methyl)cyclobutyl)phenyl)-4-(trifluoromethyl)isoindolin-1-one]
140 nM | (1.1x) | 130 nM | Cn1cnnc1CC1(c2cc(NCCN3CCCC3=O)nc(N3Cc4c(cc(CNC5(C)CCC5)cc4C(F)(F)F)C3=O)c2)CCC1 [Compound 338, 2-(4-(1-((4-methyl-4H-1,2,4-triazol-3-yl)methyl)cyclobutyl)-6-((2-(2-oxopyrrolidin-1-yl)ethyl)amino)pyridin-2-yl)-6-(((1-methylcyclobutyl)amino)methyl)-4-(trifluoromethyl)isoindolin-1-one]
